From US20220323476A1, “ANTIVIRAL PRODRUGS AND FORMULATIONS THEREOF” (priority 2019, published 2022)

Key:
[1] = Single dose rhesus macaque PK, subcutaneous aqueous suspension, plasma EFdA by LC-MS/MS
Protocol: The aqueous suspension formulations were derived from 0.25;% CMC-Na and 0.1;%/0.5% TWEEN-80 with equivalent concentration of 116 mg/mL and 319 mg/mL of EFdA for prodrug 5 and EFdA respectively.

[2] = Single dose rat PK, subcutaneous aqueous suspension, plasma EFdA by LC-MS/MS; conditions: SC; for Cmax compared with EFdA itself / time with plasma levels of EFdA above LLOQ: single dose, 10 mg/kg equivalent of EFdA, 4 mg/mL, 0.5% CMC-Na/0.5% TWEEN-80
Protocol: Animals (Male SD rats ˜200-250 g and Male rhesus macaques ˜2-3 kg) were obtained from an approved vendor (SLAC Laboratory Animal Co. Ltd., Shanghai, China and/or Topgene Biotechnology, Wuhan city, Hubei Province, China).
Animals were fasted at least 12 hours prior to the administration. All animals had access to Certified Rodent and non-Rodent Diet (Catalog #M01-F, SLAC Laboratory Animal Cl. Ltd., Shanghai, China) ad libitum 4 hours post dosing.
The formulations were prepared on the day of dosing. Animals were dosed within four hours after the formulation is prepared. Two 20 μL aliquots of each formulation were removed from each of the formulation solutions, transferred into 1.5 mL of polypropylene microcentrifuge tubes and run dose validation by LC/UV or LC-MS/MS.
For SC dosing, the dose formulation was administered via subcutaneous injection following facility SOPs.
Approximately 200 μL blood was collected from saphenous vein at each time point for rats and 0.5 mL for rhesus macaques. All blood samples were transferred into microcentrifuge tubes containing 4 μL of K2EDTA (0.5M) as anti-coagulant and placed on wet ice until processed for plasma.
Blood: Blood samples were processed for plasma by centrifugation at approximately 4° C., 3000 g 15 min within half an hour of collection. Plasma samples was stored in polypropylene tubes, quick frozen over dry ice and kept at −70±10° C. until LC/MS/MS analysis.
If the carryover couldn't meet the criteria, then the percent of carryover should be estimated following in-house bioanalytical SOP.
Plasma concentration versus time data was analyzed by non-compartmental approaches using the Phoenix WINNONLIN 6.3 software program. Cmax, Tmax, T1/2, AUC(0-t), AUC(0-inf), MRT(0-t), MRT(0-inf), % F and graphs of plasma concentration versus time profile were reported.
Several prodrugs including EFdA (1) as a control were subjected to a single dose rat PK studies via subcutaneous route of administration. All were injected with equivalent doses of 10 mg/kg and concentration of 4 mg/mL of EFdA as an aqueous suspension formulation derived from 0.5% CMC-Na and 0.5% TWEEN-80.

[3] = Aqueous solubility (pH 7.4); conditions: aqueous medium at pH 7.4, pH 7.4, aqueous buffer
[4] = male, rhesus monkey, plasma, sc, 50 mg/kg

SMILES	AUC(0-inf) [1, 4] [µM·h]	half-life [1, 4] [h]	Cmax compared with EFdA itself [2]	time with plasma levels of EFdA above LLOQ [2]	half life and mean residence life compared with EFdA ([2]; 100 mg/kg equivalent dose, 120 mg/mL (prodrug 3) vs 319 mg/mL (EFdA))	solubility [3] [µg/mL]	time with plasma levels of EFdA above LLOQ ([1]; rhesus macaque, SC, single dose, 50 mg/kg equivalent of EFdA, 116 mg/mL)
C#C[C@]1(CO)O[C@@H](n2cnc3c(N)nc(F)nc32)C[C@@H]1O [Compound 1, (2R,3S,5R)-5-(6-amino-2-fluoro-9H-purin-9-yl)-2-ethynyl-2-(hydroxymethyl) tetrahydrofuran-3-ol]	135 ± 22.7	69 ± 14	–	–	–	–	–
C#C[C@]1(COC(=O)C(C)C)O[C@@H](n2cnc3c(N)nc(F)nc32)C[C@@H]1OC(=O)C(C)C [Compound 2, (2R,3S,5R)-5-(6-amino-2-fluoro-9H-purin-9-yl)-2-ethynyl-2-((isobutyryloxy)methyl) tetrahydrofuran-3-yl isobutyrate]	–	–	much lower than EFdA itself	more than a week	–	–	–
C#C[C@]1(COC(=O)C(CC)CC)O[C@@H](n2cnc3c(N)nc(F)nc32)C[C@@H]1OC(=O)C(CC)CC [Compound 3, (2R,3S,5R)-5-(6-amino-2-fluoro-9H-purin-9-yl)-2-(((2-ethylbutanoyl)oxy)methyl)-2-ethynyltetrahydrofuran-3-yl 2-ethylbutanoate]	–	–	much lower than EFdA itself	more than a week	Enhanced	< 2	–
C#C[C@]1(COC(=O)Cc2ccccc2)O[C@@H](n2cnc3c(N)nc(F)nc32)C[C@@H]1OC(=O)Cc1ccccc1 [Compound 5, (2R,3S,5R)-5-(6-amino-2-fluoro-9H-purin-9-yl)-2-ethynyl-2-((2-phenylacetoxy)methyl) tetrahydrofuran-3-yl 2-phenylacetate]	–	–	much lower than EFdA itself	more than a week	–	< 2	more than a month
C#C[C@]1(COC(=O)CN)O[C@@H](n2cnc3c(N)nc(F)nc32)C[C@@H]1OC(=O)CN [Compound 14]	–	–	–	–	–	> 106000	–
